From patent US8232253B2, “Treatment of lung cancer” (Ramot at Tel-Aviv University Ltd., priority 2006, dated 2012)

Columns and labels:
A549 cells [1] = assay: Cell growth by direct cell counting; type: cell-based; conditions: Homo sapiens, A549, 144 h, cells grown 6 days with FTS, read-out: FTS concentration giving a decrease of 50% in A549 cell growth
Method: FTS was provided by Concordia Pharmaceuticals, Inc. (Ft. Lauderdale, Fla.). All cell lines were obtained from American Type Culture Collection (“ATCC”) (Manassas, Va.). A549 cells, non-small-cell lung carcinoma (CCL, ATCC) cells, were cultured in Kaighn's modification of Ham's F-12 medium containing 1.5 g/l sodium bicarbonate, 10% fetal calf serum (FCS), 100 U/ml penicillin, and 100 μg/ml streptomycin. HTB54 lung carcinoma cells were cultured in McCoy's 5A medium with 10% FCS, 100 U/ml penicillin, and 10 μg/ml streptomycin. […] Cells were treated with the indicated concentrations of FTS (Concordia Pharmaceuticals, Sunrise Fla.) or with 0.1% Me2SO4 (DMSO) (vehicle) 24 h after plating and were counted 5 days later. Dead cells were counted after addition of Hoechst 33258 dye (Sigma-Aldrich, St. Louis, Mo.); 1 μg/ml) to vehicle-treated control cultures or to cultures treated for 24 or 48 h with 75 μM FTS. Fluorescence images were collected 5 min after the dye was added.
To investigate the effect of FTS on lung cancer cell proliferation, we first incubated A549 cells that harbor the activated K-ras gene mutated at codon 12. […] The number of cells in the FTS-treated cultures was determined by direct counting of A549 cells grown for 6 days in the presence of FTS and was expressed as a percentage of the number recorded in the controls. […]

A549 cells [2] = assay: FACS analysis of cell cycle (propidium iodide); type: cell-based, human; conditions: for apoptotic population of cells (sub-G1): 75 μM FTS; for reduction in G1 population: FTS
Method: A549 cells were plated (9×10^5 cells) in 10-cm plates, incubated for 24 h in medium containing 5% FCS, and then incubated for 24 or 48 h with or without 75 μM FTS. The cells were collected, resuspended in PBS containing propidium iodide (50 μg/ml; Sigma) and 0.05% Triton X-100, and subjected to analysis by a fluorescence-activated cell sorter (FACSCalibur; Becton Dickinson, Los Angeles, Calif.).
To investigate the effect of FTS on lung cancer cell proliferation, we first incubated A549 cells that harbor the activated K-ras gene mutated at codon 12. A549 cells are commonly used as a model for drug screening. […] Increasing concentration of FTS inhibited A549 cell growth at a dose dependent rate, with a decrease of 50% at 40 μM FTS. The number of cells in the FTS-treated cultures was determined by direct counting of A549 cells grown for 6 days in the presence of FTS and was expressed as a percentage of the number recorded in the controls. Data were means of 12 counts ±SD. *P<0.01, **P<0.0005, compared to control (FIG. 3). In another set of experiments, cells were also treated for 24 and 48 h with FTS and collected for FACS analysis (FIG. 4). The apoptotic population of cells (indicated in the FACS analysis as sub-G1) was 3.8% at 24 h and 8.4% at 48 h in cells treated with 75 μM FTS, compared to 1.0% and 2.8%, respectively, in control cells (FIG. 4). […] Thus, FTS induced cell-cycle arrest in A549 cells, resulting in inhibition of cell growth.

phospho-Akt = assay: Phospho-Akt immunoblotting in A549 cells; type: cell-based, human
Method: A549 cells were incubated for 24 or 48 h with or without FTS, as described above, and then lysed with lysis buffer as described in Haklai, R., Gana-Weisz, M., Elad, G., et al., Biochemistry 37:1306-14 (1998). The apparent amounts of K-Ras-GTP in 0.5 mg protein of total cell lysates were determined by the glutathione-S-transferase (GST)-RBD (Ras-binding domain of Raf) pull-down assay, as described in (Elad-Sfadia, G., Haklai, R., Ballan, E., Gabius, H. J., Kloog, Y., J Biol Chem 277:37169-75 (2002). The apparent amounts of Rac1-GTP and of RhoA-GTP, each in 2 mg protein of total cell lysates, were determined, respectively, by pull-down assays with GST-PBD (Rac1-binding domain of PAK1)-conjugated and GST-Rhotekin BD (Rho-binding domain of Rhotekin)-conjugated beads [Benard, V., Bohl, B. P., Bokoch, G. M, J Biol Chem 274:13198-204 (1999); Fiordalisi, J. J., Keller, P. J., Cox, A. D., Cancer Res 66:3153-61 (2006). […] Levels of phospho-ERK and phospho-Akt were determined by immunoblotting [Haklai, R., Gana-Weisz, M., Elad, G., et al., supra.] using rabbit anti phospho-ERK1/2 Ab (Santa Cruz Biotechnology, Santa Cruz, Calif.) and rabbit anti phospho-Akt Ab (Cell Signaling, Beverly, Mass.). Protein bands were visualized by enhanced chemiluminescence and quantified by densitometry using ImageJ computer software (National institutes of Health, Bethesda, Md.). […]

Compound: CC(C)=CCC/C(C)=C/CC/C(C)=C/CSc1ccccc1C(=O)O [FTS, S-farnesylthiosalicylic acid]
- IC50 (A549 cells [1]): 40 µM
- apoptotic population of cells (sub-G1) (A549 cells [2]; 24 h): 3.8%
- apoptotic population of cells (sub-G1) (A549 cells [2]; 48 h): 8.4%
- reduction in G1 population (A549 cells [2]; 24 h): 5.6%
- reduction in G1 population (A549 cells [2]; 48 h): 19%
- inhibition of phospho-Akt level (phospho-Akt): 58±6%
